# Patent US20090054413A1, “Novel 5,6-Dihydropyrazolo[3,4-E] [L,4]Diazepin-4 (IH) -One Derivatives for the Treatment of Asthma and Chronic Obstructive Pulmonary Disease” (AstraZeneca AB, priority 2005, published 2009)
# Biological target: recombinant Human Phosphodiesterase B2 (PDE4B2) (Homo sapiens, UniProt Q07343)
# Assay: Human Phosphodiesterase B2 Alpha Screen Assay
# Assay type: biochemical
# Conditions: recombinant human PDE4B2, cAMP substrate, 60 min at room temperature
# Experimental: Human Phosphodiesterase B2 Alpha Screen Assay
# The assay uses recombinant Human Phosphodiesterase B2 (PDE4B2) produced in house (PrAZL0133), stored at −20° C. The substrate uses cAMP, part of the Alpha Screen cAMP kit (Perkin Elmer, Cat #6760625M), stored at 4° C. The Alpha Screen kit also includes biotinylated cAMP, acceptor and donor beads.
# The assay additions were as follows: Test compounds and controls were added to white 384-well flat-bottom plates (Greiner, Cat #781075), 0.2 μl in 100% DMSO, followed by 10 μl PDE4B2 in reaction buffer. The reaction buffer constitution was: 50 mM Tris (pH 7.5), 8.3 mM MgCl2, 1.7 mM EGTA and 0.01% (w/v) Brij®35. The enzyme and the compounds were incubated at room temperature for 15 minutes. Then 10 μl cAMP in reaction buffer was added. The assay was stopped after 60 minutes incubation at room temperature by adding 10 μl acceptor beads in detection buffer with 40 mM EDTA. The detection buffer constitution was: 5 mM Tris (pH 7.5), 0.1% (w/v) BSA and 0.1% (v/v) Tween 20. This addition followed by an addition of 10 μl donor beads in detection buffer, with biotinylated cAMP. The plates were then incubated, dark at room temperature, for 5 hours followed by measurement on a Fusion™-α analyser. IC50 values (presented in Table 1) were determined using Xlfit curve fitting using model 205.
# Chain of recombinant Human Phosphodiesterase B2 (PDE4B2) (Q07343 1-564 isoform Q07343-2): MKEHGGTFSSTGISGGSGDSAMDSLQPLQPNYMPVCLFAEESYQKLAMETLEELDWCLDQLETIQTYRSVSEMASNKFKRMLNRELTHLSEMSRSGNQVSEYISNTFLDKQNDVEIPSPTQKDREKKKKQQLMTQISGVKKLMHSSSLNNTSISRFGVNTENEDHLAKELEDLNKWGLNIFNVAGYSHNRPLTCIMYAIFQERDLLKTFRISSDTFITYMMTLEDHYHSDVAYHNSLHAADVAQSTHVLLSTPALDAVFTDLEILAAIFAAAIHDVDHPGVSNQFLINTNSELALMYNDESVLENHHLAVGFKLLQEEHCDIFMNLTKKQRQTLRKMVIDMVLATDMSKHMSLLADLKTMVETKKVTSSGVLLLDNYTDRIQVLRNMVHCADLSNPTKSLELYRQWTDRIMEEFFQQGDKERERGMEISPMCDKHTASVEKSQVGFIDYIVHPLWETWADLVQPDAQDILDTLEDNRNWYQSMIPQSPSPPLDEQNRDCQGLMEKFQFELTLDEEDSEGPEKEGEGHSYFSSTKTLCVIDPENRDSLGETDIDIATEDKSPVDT
row,IC50 [nM],Structure (SMILES)
1,2.16,"CCc1nn(C2CCCC2)c2c1C(=O)NCC(c1ccco1)=N2 [Example 17, 1-Cyclopentyl-3-ethyl-7-(2-furyl)-5,6-dihydropyrazolo[3,4-e][1,4]diazepin-4(1H)-one]"
2,0.84,"CCc1nn(C2CCCC2)c2c1C(=O)NCC(c1ccc(Br)cc1)=N2 [Example 8, 7-(4-Bromophenyl)-1-cyclopentyl-3-ethyl-5,6-dihydropyrazolo[3,4-e][1,4]diazepin-4(1H)-one]"
3,0.43,"CCc1nn(C2CCCC2)c2c1C(=O)NCC(c1ccc3c(c1)OCCCO3)=N2 [Example 16, 1-Cyclopentyl-7-(3,4-dihydro-2H-1,5-benzodioxepin-7-yl)-3-ethyl-5,6-dihydropyrazolo[3,4-e][1,4]diazepin-4(1H)-one]"
4,40.3,"CCc1nn(C2CCS(=O)(=O)CC2)c2c1C(=O)NCC(c1ccccc1)=N2 [Example 35, 1-(1,1-Dioxidotetrahydro-2H-thiopyran-4-yl)-3-ethyl-7-phenyl-5,6-dihydropyrazolo[3,4-e][1,4]diazepin-4(1H)-one]"
5,0.98,"CCc1nn(C2CCCC2)c2c1C(=O)NCC(c1ccc(OC)cc1)=N2 [Example 2, 1-cyclopentyl-3-ethyl-7-(4-methoxyphenyl)-5,6-dihydropyrazolo[3,4-e][1,4]diazepin-4(1H)-one]"
6,99.1,"CCc1nn(C2CC[S+]([O-])CC2)c2c1C(=O)NCC(c1ccccc1)=N2 (stereo not drawn) [Example 34, 3-Ethyl-1-(1-oxidotetrahydro-2H-thiopyran-4-yl)-7-phenyl-5,6-dihydropyrazolo[3,4-e][1,4]diazepin-4(1H)-one]"
7,3.92,"CCc1nn(C2CCCC2)c2c1C(=O)NCC(c1ccc(S(C)(=O)=O)cc1)=N2 [Example 24, 1-Cyclopentyl-3-ethyl-7-[4-(methylsulfonyl)phenyl]-5,6-dihydropyrazolo[3,4-e][1,4]diazepin-4(1H)-one]"
8,0.61,"CCc1nn(C2CCCC2)c2c1C(=O)NCC(c1ccc(C)cc1)=N2 [Example 9, 1-Cyclopentyl-3-ethyl-7-(4-methylphenyl)-5,6-dihydropyrazolo[3,4-e][1,4]diazepin-4(1H)-one]"
9,4.16,"CCc1nn(C2CCCC2)c2c1C(=O)NCC(c1ccc(OC(F)(F)F)cc1)=N2 [Example 22, 1-Cyclopentyl-3-ethyl-7-[4-(trifluoromethoxy)phenyl]-5,6-dihydropyrazolo[3,4-e][1,4]diazepin-4(1H)-one]"
10,0.52,"CCc1nn(C2CCCC2)c2c1C(=O)NCC(c1ccc(O)c(C(=O)O)c1)=N2 [Example 27, 5-(1-Cyclopentyl-3-ethyl-4-oxo-1,4,5,6-tetrahydropyrazolo[3,4-e][1,4]diazepin-7-yl)-2-hydroxybenzoic acid]"
11,1.47,"CCc1nn(C2CCCC2)c2c1C(=O)NCC(c1ccc(OC)c(OC)c1)=N2 [Example 7, 1-Cyclopentyl-7-(3,4-dimethoxyphenyl)-3-ethyl-5,6-dihydropyrazolo[3,4-e][1,4]diazepin-4(1H)-one]"
12,0.55,"CCc1nn(C2CCCC2)c2c1C(=O)NCC(c1cccc(OC)c1)=N2 [Example 19, 1-Cyclopentyl-3-ethyl-7-(3-methoxyphenyl)-5,6-dihydropyrazolo[3,4-e][1,4]diazepin-4(1H)-one]"
13,0.59,"CCc1nn(C2CCCC2)c2c1C(=O)NCC(c1ccc(O)c(C(=O)OC)c1)=N2 [Example 11, Methyl 5-(1-cyclopentyl-3-ethyl-4-oxo-1,4,5,6-tetrahydropyrazolo[3,4-e][1,4]diazepin-7-yl)-2-hydroxybenzoate]"
14,0.91,"CCc1nn(C2CCCC2)c2c1C(=O)NCC(c1ccccc1OC)=N2 [Example 10, 1-Cyclopentyl-3-ethyl-7-(2-methoxyphenyl)-5,6-dihydropyrazolo[3,4-e][1,4]diazepin-4(1H)-one]"
15,0.5,"CCc1nn(C2CCCC2)c2c1C(=O)NCC(c1cc(OC)ccc1OC)=N2 [Example 14, 1-Cyclopentyl-7-(2,5-dimethoxyphenyl)-3-ethyl-5,6-dihydropyrazolo[3,4-e][1,4]diazepin-4(1H)-one]"
16,1.21,"CCc1nn(C2CCCC2)c2c1C(=O)NCC(c1ccc(C#N)cc1)=N2 [Example 23, 4-(1-Cyclopentyl-3-ethyl-4-oxo-1,4,5,6-tetrahydropyrazolo[3,4-e][1,4]diazepin-7-yl)benzonitrile]"
17,0.9,"CCc1nn(C2CCCC2)c2c1C(=O)NCC(c1ccc(OCc3ccccc3)cc1)=N2 [Example 15, 7-[4-(Benzyloxy)phenyl]-1-cyclopentyl-3-ethyl-5,6-dihydropyrazolo[3,4-e][1,4]diazepin-4(1H)-one]"
18,0.73,"CCc1nn(C2CCCC2)c2c1C(=O)NCC(c1ccc(F)c(F)c1)=N2 [Example 13, 7-(3,4-Difluorophenyl)-1-cyclopentyl-3-ethyl-5,6-dihydropyrazolo[3,4-e][1,4]diazepin-4(1H)-one]"
19,3.9,"CCc1nn(C2CCSCC2)c2c1C(=O)NCC(c1ccccc1)=N2 [Example 33, 3-Ethyl-7-phenyl-1-tetrahydro-2H-thiopyran-4-yl-5,6-dihydropyrazolo[3,4-e][1,4]diazepin-4(1H)-one]"
20,0.57,"CCc1nn(C2CCCC2)c2c1C(=O)NCC(c1ccc(Cl)cc1)=N2 [Example 12, 7-(4-Chlorophenyl)-1-cyclopentyl-3-ethyl-5,6-dihydropyrazolo[3,4-e][1,4]diazepin-4(1H)-one]"
21,0.33,"CCc1nn(C2CCCC2)c2c1C(=O)NCC(c1ccccc1)=N2 [Example 1, 1-Cyclopentyl-3-ethyl-7-phenyl-5,6-dihydropyrazolo[3,4-e][1,4]diazepin-4(1H)-one]"

# The remaining lines, values behind:
row,Structure (SMILES),IC50 [nM]
1,"CCc1nn(C2CCCC2)c2c1C(=O)NC(c1ccccc1)C(C)=N2 (stereo not drawn) [Example 25, 1-Cyclopentyl-3-ethyl-7-methyl-6-phenyl-5,6-dihydropyrazolo[3,4-e][1,4]diazepin-4(1H)-one]",385
2,"CCc1nn(C2CCCC2)c2c1C(=O)NCC(c1ccc(F)cc1)=N2 [Example 21, 1-Cyclopentyl-3-ethyl-7-(4-fluorophenyl)-5,6-dihydropyrazolo[3,4-e][1,4]diazepin-4(1H)-one]",1.05
3,"CCc1nn(C2CCCC2)c2c1C(=O)N(C)CC(c1ccccc1)=N2 [Example 26, 1-Cyclopentyl-3-ethyl-5-methyl-7-phenyl-5,6-dihydropyrazolo[3,4-e][1,4]diazepin-4(1H)-one]",103
4,"CCc1nn(C2CCS(=O)(=O)C2)c2c1C(=O)NCC(c1ccccc1)=N2 (stereo not drawn) [Example 32, 1-(1,1-Dioxidotetrahydrothien-3-yl)-3-ethyl-7-phenyl-5,6-dihydropyrazolo[3,4-e][1,4]diazepin-4(1H)-one]",5.8
5,"CCc1nn(C2CCCC2)c2c1C(=O)NCC(C(C)(C)C)=N2 [Example 18, 7-tert-Butyl-1-cyclopentyl-3-ethyl-5,6-dihydropyrazolo[3,4-e][1,4]diazepin-4(1H)-one]",0.53
6,"CCc1nn(-c2ccc(F)cc2)c2c1C(=O)NCC(c1ccccc1)=N2 [Example 3, 3-ethyl-1-(4-fluorophenyl)-7-phenyl-5,6-dihydropyrazolo[3,4-e][1,4]diazepin-4(1H)-one]",6.1
7,"CCc1nn(C2CCCC2)c2c1C(=O)NCC(CCC(=O)NCCN(C)C)=N2 [Example 29, 3-(1-Cyclopentyl-3-ethyl-4-oxo-1,4,5,6-tetrahydropyrazolo[3,4-e][1,4]diazepin-7-yl)-N-[2-(dimethylamino)ethyl]propanamide]",4480
8,"CCc1nn(-c2ccc(S(C)(=O)=O)cc2)c2c1C(=O)NCC(c1ccccc1)=N2 [Example 5, 3-ethyl-1-[4-(methylsulfonyl)phenyl]-7-phenyl-5,6-dihydropyrazolo[3,4-e][1,4]diazepin-4(1H)-one]",43
9,"CSc1nn(-c2ccccc2)c2c1C(=O)NCC(c1ccccc1)=N2 [Example 31, 3-(Methylthio)-1,7-diphenyl-5,6-dihydropyrazolo[3,4-e][1,4]diazepin-4(1H)-one]",426
10,"CCc1nn(-c2cccc([N+](=O)[O-])c2)c2c1C(=O)NCC(c1ccccc1)=N2 [Example 4, 3-ethyl-1-(3-nitrophenyl)-7-phenyl-5,6-dihydropyrazolo[3,4-e][1,4]diazepin-4(1H)-one]",4.8
11,"CCc1nn(-c2ccccc2)c2c1C(=O)NCC(c1ccccc1)=N2 [Example 6, 3-Ethyl-1,7-diphenyl-5,6-dihydropyrazolo[3,4-e][1,4]diazepin-4(1H)-one]",11
12,"Cc1nn(C2CCCC2)c2c1C(=O)NCC(c1ccccc1)=N2 [Example 36, 1-Cyclopentyl-3-methyl-7-phenyl-5,6-dihydropyrazolo[3,4-e][1,4]diazepin-4(1H)-one]",9.49
13,"CCc1nn(C2CCCC2)c2c1C(=O)NCC(CCC(=O)O)=N2 [Example 28, 3-(1-Cyclopentyl-3-ethyl-4-oxo-1,4,5,6-tetrahydropyrazolo[3,4-e][1,4]diazepin-7-yl)propanoic acid]",65.3
14,"CCc1nn(C2CCCC2)c2c1C(=O)NCC(CCC(=O)OC)=N2 [Example 20, Methyl 3-(1-cyclopentyl-3-ethyl-4-oxo-1,4,5,6-tetrahydropyrazolo[3,4-e][1,4]diazepin-7-yl)propanoate]",28.7
15,"CCc1nn(C2CCCC2)c2c1C(=O)NCC(c1ccccc1)N2 (stereo not drawn) [Example 30, 1-Cyclopentyl-3-ethyl-7-phenyl-5,6,7,8-tetrahydropyrazolo[3,4-e][1,4]diazepin-4(1H)-one]",158
